From patent publication US20230024302A1, “2,3,5-TRISUBSTITUTED PYRAZOLO[1,5-A]PYRIMIDINE COMPOUNDS” (Arcus Biosciences, Inc., priority 2019, published 2023) come the findings set out here.

For test [1], the target named is T1, PI3Kγ (p120γ) (Homo sapiens, UniProt P48736).
T1 construct: purchased Promega V1761
The experiment in a line: Inhibition of PI3K kinase activity (ADP Glo), PI3Kγ. The following applies: read-out: biochemical potency (PI3Kγ IC50). The method, boiled down:
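Recombinant p120γ (8 nM, 2× stock) was preincubated with compound for 1 h at rt in HEPES pH 7.4, NaCl, MgCl2 and 0.05% BSA. Reaction was started with PIP2 (0.1 mg/ml, 2×) and ATP (50 μM, 2×) and ran 60 min at rt. ADP formed was read by ADP-Glo luminescence, and IC50 came from a 4-parameter fit.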
(ADP-Glo first removes unused ATP, then detects ADP through luciferase.)

Test [2] deals with T2, PI3Kγ (Homo sapiens, UniProt P48736).
T2 construct: host or cells: THP-1
T2 sequence (P48736 whole entry): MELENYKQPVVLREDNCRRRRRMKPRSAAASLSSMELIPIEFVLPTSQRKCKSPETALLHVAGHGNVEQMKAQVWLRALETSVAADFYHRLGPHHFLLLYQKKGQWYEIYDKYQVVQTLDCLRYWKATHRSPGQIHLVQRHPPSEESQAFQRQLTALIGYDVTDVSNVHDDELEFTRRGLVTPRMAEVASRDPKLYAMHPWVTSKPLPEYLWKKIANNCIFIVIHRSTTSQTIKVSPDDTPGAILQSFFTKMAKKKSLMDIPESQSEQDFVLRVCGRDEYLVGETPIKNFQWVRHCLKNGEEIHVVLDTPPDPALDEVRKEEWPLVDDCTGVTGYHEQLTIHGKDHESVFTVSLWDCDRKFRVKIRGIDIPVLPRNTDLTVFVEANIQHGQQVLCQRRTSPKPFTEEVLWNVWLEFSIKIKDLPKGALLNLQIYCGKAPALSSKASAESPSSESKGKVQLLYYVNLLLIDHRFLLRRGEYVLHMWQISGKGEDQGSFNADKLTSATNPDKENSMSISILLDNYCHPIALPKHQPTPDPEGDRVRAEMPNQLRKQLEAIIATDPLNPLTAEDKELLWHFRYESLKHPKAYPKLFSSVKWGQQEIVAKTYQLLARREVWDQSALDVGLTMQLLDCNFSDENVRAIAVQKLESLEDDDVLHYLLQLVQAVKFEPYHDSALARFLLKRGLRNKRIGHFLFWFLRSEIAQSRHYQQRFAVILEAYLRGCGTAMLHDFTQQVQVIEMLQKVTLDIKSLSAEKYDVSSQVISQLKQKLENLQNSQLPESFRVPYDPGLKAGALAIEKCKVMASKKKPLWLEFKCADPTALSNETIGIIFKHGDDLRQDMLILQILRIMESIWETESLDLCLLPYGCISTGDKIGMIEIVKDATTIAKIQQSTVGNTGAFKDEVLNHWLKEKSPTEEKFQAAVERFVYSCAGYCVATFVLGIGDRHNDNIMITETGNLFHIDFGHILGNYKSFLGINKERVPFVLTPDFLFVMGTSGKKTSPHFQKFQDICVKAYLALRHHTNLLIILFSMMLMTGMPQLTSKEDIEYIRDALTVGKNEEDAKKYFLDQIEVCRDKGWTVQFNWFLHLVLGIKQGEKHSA
The experiment in a line: PI3Kγ cellular assay in THP-1 cells (AKT pS473 AlphaLISA). The test is classed as cell-based. In short, it runs like this:
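Serum-starved THP-1 cells (1.8×10^5/well, serum-free DMEM) treated with compounds from 4 nM to 30 μM in 2% DMSO, then stimulated and lysed.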

Setting [3] is: Table 2, rhMCP-1 stimulated AKT pS473, read-out: cellular potency (PI3Kγ IC50).
The mark [4] stands for this setting: Table 1, rhMCP-1 stimulated AKT pS473, read-out: cellular potency (PI3Kγ IC50).

Where two headings read alike, the source gives them in different places. Bounds are passed on as bounds.

T1 sequence (P48736 whole entry): as above

Broadly, the IC50 is the midpoint of a concentration-inhibition curve. For the compound `Cc1cc(-c2ccn3nc(N)c(C(=O)N4CCC4CO)c3n2)cc2c1C(=O)N(C(C)C1CC1)C2` (centres unmarked) [Example 274], the IC50 in test [1] (Table 2, p120γ) is under 100 nM; in test [2] (setting [3]), 100 to 1000 nM.

Consider `Cc1cc(NC(=O)c2c(N)nn3ccc(-c4cc(C)c5c(c4)CN([C@@H](C)C4CC4)C5=O)nc23)ccn1` [Example 297], for which the half-maximal inhibitory concentration (IC50) in test [1] (Table 2, p120γ) was under 100 nM; in test [2] (setting [3]), 100 to 1000 nM.

For `Cc1cc(-c2ccn3nc(N)c(C(=O)N[C@H](C)c4cnn(C)c4)c3n2)cc2c1C(=O)N([C@@H](C)C1CC1)C2` [Example 175], the IC50 in test [1] (Table 2, p120γ) was under 100 nM; in test [2] (setting [3]), 100 to 1000 nM.

With `Cc1cc(-c2ccn3nc(N)c(C(=O)N[C@H]4Cc5ccccc5[C@@H]4O)c3n2)cc2c1C(=O)N([C@@H](C)C1CC1)C2` [Example 265], the IC50 is under 100 nM in test [1] (Table 2, p120γ) and over 1000 nM in test [2] (setting [3]).

For the compound `C[C@H](N1Cc2cc(-c3ccn4nc(N)c(C(=O)N[C@H]5CC[C@@](C)(O)CC5)c4n3)cc(NS(C)(=O)=O)c2C1=O)C(F)(F)F` [Example 122, 2-Amino-5-{7-methanesulfonamido-1-oxo-2-[(2S)-1,1,1-trifluoropropan-2-yl]-2,3-dihydro-1H-isoindol-5-yl}-N-[cis-4-hydroxy-4-methylcyclohexyl]pyrazolo[1,5-a]pyrimidine-3-carboxamide], the concentration for half-maximal inhibition (IC50) was under 100 nM in test [1] (Table 1, p120γ) and under 100 nM in test [2] (setting [4]).

For `Cc1cc(-c2ccn3nc(N)c(C(=O)NC[C@H](C)O)c3n2)cc2c1C(=O)N([C@@H](C)C1CC1)C2` [Example 234], the IC50 in test [1] (Table 2, p120γ) is under 100 nM; in test [2] (setting [3]) it was 100 to 1000 nM.

Regarding `Cc1cc(-c2ccn3nc(N)c(C(=O)N[C@@H](CO)C(C)(C)C)c3n2)cc2c1C(=O)N([C@@H](C)C1CC1)C2` [Example 237], the IC50 in test [1] (Table 2, p120γ) is under 100 nM; in test [2] (setting [3]), 100 to 1000 nM.

In the case of `C[C@H](CO)NC(=O)c1c(N)nn2ccc(-c3cc4c(c(OC(F)(F)F)c3)C(=O)N([C@@H](C)C3CC3)C4)nc12` [Example 22, 2-Amino-5-{2-[(1S)-1-cyclopropylethyl]-1-oxo-7-(trifluoromethoxy)-2,3-dihydro-1H-isoindol-5-yl}-N-[(2R)-1-hydroxypropan-2-yl]pyrazolo[1,5-a]pyrimidine-3-carboxamide], the IC50 in test [1] (Table 1, p120γ) is under 100 nM; in test [2] (setting [4]) it was under 100 nM.

In the case of `Cc1cc(-c2ccn3nc(N)c(C(=O)NC(C)(C)CO)c3n2)cc2c1C(=O)N([C@@H](C)C1CC1)C2` [Example 223], the IC50 in test [1] (Table 2, p120γ) is under 100 nM; in test [2] (setting [3]) it was 100 to 1000 nM.

For `CCS(=O)(=O)Nc1cc(-c2ccn3nc(N)c(C(=O)N[C@H]4C[C@](C)(O)C4)c3n2)cc2c1C(=O)N([C@@H](C)C1CC1)C2` [Example 111, 2-Amino-5-{2-[(1S)-1-cyclopropylethyl]-7-ethanesulfonamido-1-oxo-2,3-dihydro-1H-isoindol-5-yl}-N-[trans-3-hydroxy-3-methylcyclobutyl]pyrazolo[1,5-a]pyrimidine-3-carboxamide], the IC50 was under 100 nM in test [1] (Table 1, p120γ) and under 100 nM in test [2] (setting [4]).

Consider `Cc1cc(-c2ccn3nc(N)c(C(=O)N[C@@H]4CNC(=O)C4)c3n2)cc2c1C(=O)N([C@@H](C)C1CC1)C2` [Example 202], for which the half-inhibitory concentration (IC50) in test [1] (Table 2, p120γ) is under 100 nM; in test [2] (setting [3]), 100 to 1000 nM.

As for `C[C@@H](C1CC1)N1Cc2cc(-c3ccn4nc(N)c(C(=O)N[C@H]5CC[C@H](O)C5)c4n3)cc(OC(F)(F)F)c2C1=O` [Example 36, 2-Amino-5-{2-[(1S)-1-cyclopropylethyl]-1-oxo-7-(trifluoromethoxy)-2,3-dihydro-1H-isoindol-5-yl}-N-[(1S,3S)-3-hydroxycyclopentyl]pyrazolo[1,5-a]pyrimidine-3-carboxamide], the IC50 in test [1] (Table 1, p120γ) was under 100 nM; in test [2] (setting [4]), under 100 nM.

On to `C[C@H](CO)NC(=O)c1c(N)nn2ccc(-c3cc4c(c(OC5CC(F)(F)C5)c3)C(=O)N([C@@H](C)C3CC3)C4)nc12` [Example 439], for which the IC50 in test [1] (Table 6, p120γ) is under 100 nM; in test [2] (Table 6, rhMCP-1 stimulated AKT pS473, read-out: cellular potency (PI3Kγ IC50)), 100 to 1000 nM.
